What was measured:
[1] = molecular target: T1, Kv1.5 (Homo sapiens, UniProt P22460); assay: Kv1.5 Patch Clamp EP; assay type: cell-based; conditions: whole cell patch clamp; for inhibition at 1 µM: single point, Kv1.5 stably over expressed in HEK or LTK- cells; for IC50: HEK or LTK- cells, at least four concentrations, n=3
T1 construct: expressed in transfected cells; host or cells: HEK or LTK- cells
Description: The external solution is standard Tyrodes solution. […] Inhibition was measured at the end of the 1 second pulses and expressed relative to controls. Initial Kv1.5 inhibition is estimated by single point determinations done at 1 μM.

[2] = system: L-type calcium channels; assay: FLIPR L-Type Calcium Channel Assay; assay type: cell-based, murine; conditions: HL-1 cells expressing endogenous L-type calcium channels; calcium influx after 20 mM KCl; read-out: L-type Ca^2+ IC50
In short: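 After a 15 min compound pre-incubation at 37 °C with 2.5 mM probenecid, L-type channels were opened by depolarising with 20 mM KCl (final). Fluorescence (488 nm excitation, 510–570 nm emission) was read for 5 min.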

[3] = molecular target: HERG (Homo sapiens, UniProt Q12809); assay: HERG Patch Clamp EP; conditions: for inhibition at 10 µM: human, HEK cells stably overexpressing HERG
HERG, sequence (Q12809 whole entry): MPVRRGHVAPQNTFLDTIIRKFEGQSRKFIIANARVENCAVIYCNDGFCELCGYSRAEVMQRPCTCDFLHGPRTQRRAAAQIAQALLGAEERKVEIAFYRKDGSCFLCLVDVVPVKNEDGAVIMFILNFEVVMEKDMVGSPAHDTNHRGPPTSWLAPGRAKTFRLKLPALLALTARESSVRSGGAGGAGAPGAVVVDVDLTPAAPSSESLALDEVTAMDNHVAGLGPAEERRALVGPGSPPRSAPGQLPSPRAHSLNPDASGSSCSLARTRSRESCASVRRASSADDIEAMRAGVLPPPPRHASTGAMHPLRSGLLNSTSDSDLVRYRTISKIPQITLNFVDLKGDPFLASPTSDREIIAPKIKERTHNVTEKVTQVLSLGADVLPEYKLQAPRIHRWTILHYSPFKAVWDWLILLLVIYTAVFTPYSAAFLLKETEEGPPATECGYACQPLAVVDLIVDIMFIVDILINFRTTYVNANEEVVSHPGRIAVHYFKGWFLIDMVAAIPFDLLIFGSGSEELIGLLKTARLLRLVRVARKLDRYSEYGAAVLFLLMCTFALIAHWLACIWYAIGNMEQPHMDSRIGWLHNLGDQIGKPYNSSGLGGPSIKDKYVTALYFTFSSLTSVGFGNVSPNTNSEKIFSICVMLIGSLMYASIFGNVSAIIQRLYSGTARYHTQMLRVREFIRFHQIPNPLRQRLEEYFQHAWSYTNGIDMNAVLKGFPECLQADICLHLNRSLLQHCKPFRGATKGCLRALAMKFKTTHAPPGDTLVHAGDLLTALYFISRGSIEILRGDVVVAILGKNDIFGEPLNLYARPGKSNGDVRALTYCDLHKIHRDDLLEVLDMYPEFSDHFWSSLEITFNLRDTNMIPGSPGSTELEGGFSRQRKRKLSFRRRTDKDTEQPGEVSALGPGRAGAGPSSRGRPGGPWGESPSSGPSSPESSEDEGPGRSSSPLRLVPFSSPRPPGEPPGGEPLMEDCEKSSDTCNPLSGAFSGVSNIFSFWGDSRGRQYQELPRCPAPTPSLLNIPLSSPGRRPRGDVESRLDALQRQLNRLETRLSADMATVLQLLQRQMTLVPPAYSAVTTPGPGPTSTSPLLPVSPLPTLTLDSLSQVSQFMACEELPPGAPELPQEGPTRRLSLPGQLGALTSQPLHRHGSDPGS
Description: HERG currents are recorded by the whole cell mode of patch clamp electrophysiology as described by Hamill et al.^3 HERG is stably over expressed in HEK cells. Microelectrodes are pulled from borosilicate glass (TW150) and heat polished (tip resistance, 1.5 to 3 megaohms). The external solution is standard Tyrodes solution. The internal (microelectrode) solution contained: 110 mM KCl, 5 mM K2ATP, 5 mM K4BAPTA, 1 mM MgCl2 and 10 mM HEPES, adjusted to pH 7.2 with KOH. […] Compounds are prepared as 10-20 mM DMSO stocks and diluted to appropriate test concentrations. […] Inhibition of HERG is measured at the peak of the tail currents and expressed relative to controls. Initial HERG activity is estimated by single point determinations run at 10 μM. Concentration response curves are generated for appropriate compounds utilizing at least four concentrations and an n=3. Curve fitting and IC50 estimating are done using Graphpad software (Ver. 4). • 1.

T1 sequence (P22460 whole entry): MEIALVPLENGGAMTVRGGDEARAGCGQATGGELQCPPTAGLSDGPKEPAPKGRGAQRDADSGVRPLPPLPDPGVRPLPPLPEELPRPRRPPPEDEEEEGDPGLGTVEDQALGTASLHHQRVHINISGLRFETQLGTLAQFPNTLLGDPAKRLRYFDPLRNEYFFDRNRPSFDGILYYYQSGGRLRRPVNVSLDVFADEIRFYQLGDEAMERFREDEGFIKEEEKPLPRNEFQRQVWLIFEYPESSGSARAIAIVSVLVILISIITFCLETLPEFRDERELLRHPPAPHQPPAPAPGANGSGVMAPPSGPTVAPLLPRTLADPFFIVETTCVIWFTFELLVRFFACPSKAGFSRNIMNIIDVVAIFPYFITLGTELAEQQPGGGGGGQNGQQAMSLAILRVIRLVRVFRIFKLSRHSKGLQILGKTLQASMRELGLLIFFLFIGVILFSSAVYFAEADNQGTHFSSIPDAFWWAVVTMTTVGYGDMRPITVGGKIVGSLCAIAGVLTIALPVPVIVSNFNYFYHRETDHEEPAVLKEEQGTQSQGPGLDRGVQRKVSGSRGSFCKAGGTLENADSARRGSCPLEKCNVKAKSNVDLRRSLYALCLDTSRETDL

| SMILES | inhibition at 1 µM [1] | IC50 [2] | IC50 [1] | inhibition at 10 µM [3] | IC50 [3] |
| --- | --- | --- | --- | --- | --- |
| COc1ccc(CCN2C(=O)N(NS(=O)(=O)CC(=O)N(C)C)CC2c2ccc(C3CC3)cc2)cc1 (centres unmarked) [Compound 54, 1-[[2-(Dimethylamino)-2-oxoethyl]sulfonylamino]-3-[2-(4-methoxyphenyl)-ethyl]-4-(4-cyclopropylphenyl)-2-imidazolidinone] | 80% | 30 µM | – | 46% | – |
| COCCN(CCOC)C(=O)CS(=O)(=O)NN1CC(c2ccc(C3CC3)cc2)N(CCc2ccc(OC)cc2)C1=O (centres unmarked) [Compound 60, 1-[[2-[(Bis(methoxyethyl)amino)]-2-oxoethyl]sulfonylamino]-3-[2-(4-methoxy-phenyl)ethyl]-4-(4-cyclopropylphenyl)-2-imidazolidinone] | 77% | 10.6 µM | 0.453 µM | 44% | 7.4 µM |
| COc1ccc(CCN2C(=O)N(NS(=O)(=O)CS(C)(=O)=O)CC2c2ccc(C3CC3)cc2)cc1 (centres unmarked) [Compound 61, 1-[(Methylsulfonylmethyl)sulfonyl]amino-3-[2-(4-methoxyphenyl)ethyl]-4-(4-Cyclopropylphenyl)-2-imidazolidinone] | 85% | 25 µM | – | 28% | – |
| COc1ccc(CCN2C(=O)N(NS(=O)(=O)Cc3cccnc3)CC2c2ccc(C3CC3)cc2)cc1 (centres unmarked) [Compound 64, 1-[(Pyridin-3-yl)methanesulfonyl]amino-3-[(4-methoxyphenyl)ethyl]-4-(4-cyclopropylphenyl)-imidazolidin-2-one] | 96% | 14 µM | – | 55% | – |
| COc1ccc(CCN2C(=O)N(N(C)S(=O)(=O)Cc3ccccc3)CC2c2ccc(C)c(C)c2)cc1 (centres unmarked) [Compound 67, 1-[(N-methyl-N-benzylsulfonyl)amino]-3-[2-(4-methoxy-phenyl)ethyl]-4-(3,4-dimethylphenyl)-2-imidazolidinone] | 90% | 8 µM | – | 22% | – |
| COCCN(N1CC(c2ccc(C3CC3)cc2)N(CCc2ccc(OC)cc2)C1=O)S(C)(=O)=O (centres unmarked) [Compound 68, 1-[(N-Methoxyethyl-N-methylsulfonyl)amino]-3-[2-(4-methoxyphenyl)ethyl]-4-(4-cyclopropylphenyl)-2-imidazolidinone] | 60% | 16 µM | – | 48% | – |
| COc1ccc(CCN2C(=O)N(NC(C)=O)CC2Cc2ccc(C(C)(C)C)cc2)cc1 (centres unmarked) [Compound 71, 1-(Acetylamino)-3-[2-(4-methoxyphenyl)ethyl]-4-[(4-tert-butyl)benzyl]-2-imidazolidinone] | 94% | 13 µM | – | 30% | – |
| COc1ccc(CCN2C(=O)N(NC(=O)C3CC3)CC2c2ccc(C(C)(C)C)cc2)cc1 (centres unmarked) [Compound 73, 1-Cyclopropanecarbonylamino-4-[4-(tert-butyl)phenyl]-3-[2-(4-methoxy-phenyl)ethyl]-2-imidazolidinone] | 62% | 7 µM | 0.658 µM | 56% | – |
| COc1ccc(CCN2C(=O)N(NC(=O)CS(=O)(=O)N(C)C)CC2c2ccc(C3CC3)cc2)cc1 (centres unmarked) [Compound 82, N-(4-(4-cyclopropylphenyl)-3-(4-methoxyphenethyl)-2-oxoimidazolidin-1-yl)-2-(N,N-dimethylsulfamoyl)acetamide] | 72% | 30 µM | – | 42% | – |
| COc1ccc(CCN2C(=O)N(NC(=O)OC(C)(C)C)CC2c2ccc(C)c(C)c2)cc1 (centres unmarked) [Compound 85, {4-(3,4-dimethylphenyl)-3-[2-(4-methoxyphenyl)ethyl]-2-oxo-imidazolidin-1-yl}-carbamic acid tert-butyl ester] | 92% | 3.3 µM | – | 52% | – |

More lines, main results first:

| inhibition at 1 µM [1] | IC50 [2] | IC50 [1] | SMILES | inhibition at 10 µM [3] | IC50 [3] |
| --- | --- | --- | --- | --- | --- |
| 66% | 30 µM | 0.631 µM | COc1ccc(CCN2C(=O)N(NS(=O)(=O)CC(=O)NCC3CC3)CC2c2ccc(OC)cc2)cc1 (centres unmarked) [Compound 57, 1-[[2-[(Cyclopropylmethyl)amino]-2-oxoethyl]sulfonylamino]-3-[2-(4-methoxy-phenyl)ethyl]-4-(4-methoxyphenyl)-2-imidazolidinone] | 12% | 12.4 µM |
| 95% | 6.3 µM | – | COc1ccc(CCN2C(=O)N(NS(=O)(=O)Cc3ccccc3)CC2c2ccc(OC)cc2)cc1 (centres unmarked) [Compound 63, 1-[(Phenylmethyl)sulfonylamino]-3-[2-(4-methoxyphenyl)ethyl]-4-(4-methoxyphenyl)-2-imidazolidinone] | 44% | – |
| 88% | 31 µM | – | COc1ccc(CCN2C(=O)N(NS(=O)(=O)Cc3cccnc3)CC2c2ccc(C)cc2)cc1 (centres unmarked) [Compound 65, 1-[(Pyridin-3-yl)methylsulfonyl]amino-3-[(4-methoxyphenyl)ethyl]-4-(4-methylphenyl)-2-imidazolidinone] | 38% | – |
| 86% | 30 µM | 0.257 µM | COc1ccc(CCN2C(=O)N(NS(=O)(=O)Cc3cccnc3)CC2c2ccc(OC)cc2)cc1 (centres unmarked) [Compound 66, 1-[(Pyridin-3-yl)methylsulfonyl]amino-3-[2-(4-methoxyphenyl)ethyl]-4-(4-methoxyphenyl)-2-imidazolidinone] | – | 12.6 µM |
| 68% | 11 µM | – | COc1ccc(CCN2C(=O)N(NC(=O)c3ccno3)CC2c2ccc(C(C)(C)C)cc2)cc1 (centres unmarked) [Compound 79, 1-(Isoxazol-5-ylcarbonylamino)-3-[2-(4-methoxyphenyl)-ethyl]-4-[4-(tert-butyl)phenyl]-2-imidazolidinone] | 70% | – |
| 96% | 2.8 µM | – | COc1ccc(CCN2C(=O)N(NCc3ccc(C#N)cc3)CC2c2ccc(C)c(C)c2)cc1 (centres unmarked) [Compound 83, 1-[(4-Cyanophenylmethyl)amino]-3-[2-(4-methoxyphenyl)ethyl]-4-(3,4-dimethylphenyl)-2-imidazolidinone] | 97% | – |
| 67% | 10 µM | 0.57 µM | COc1ccc(CCN2C(=O)N(NCc3ccncc3)CC2c2ccc(C)c(C)c2)cc1 (centres unmarked) [Compound 84, 4-(3,4-Dimethylphenyl)-3-[2-(4-methoxyphenyl)ethyl]-1-[(pyridin-4-ylmethyl)amino]-imidazolidin-2-one] | 73% | – |
| 94% | 11 µM | 0.399 µM | COc1ccc(CCN2C(=O)N(NCc3ccccc3)CC2c2ccc(C)c(C)c2)cc1 (centres unmarked) [Compound 88, 1-Benzylamino-4-(3,4-dimethylphenyl)-3-[2-(4-methoxyphenyl)ethyl]-2-imidazolidinone] | 90% | – |
| 85% | 7.6 µM | – | COc1ccc(CCN2C(=O)N(NCc3ccc(F)cc3)CC2c2ccc(C)c(C)c2)cc1 (centres unmarked) [Compound 89, 1-[(4-Fluorophenylmethyl)amino]-3-[2-(4-methoxyphenyl)ethyl]-4-(3,4-dimethylphenyl)-2-imidazolidinone] | 98% | – |
| 74% | 7 µM | – | COc1ccc(CCN2C(=O)N(NCc3ccc(N(C)C)cc3)CC2c2ccc(OC)cc2)cc1 (centres unmarked) [Compound 90, 1-[(4-(Dimethylamino)phenylmethyl)amino]-3-[2-(4-methoxyphenyl)ethyl]-4-(4-methoxyphenyl)-2-imidazolidinone] | 28% | – |

From patent publication US7504517B2, “Kv1.5 potassium channel inhibitors” (Wyeth, priority 2006, dated 2009)
